In patent publication US10562898B2, “Substituted benzenesulfonamides as inhibitors of alpha-4 beta-7 integrin activity” (EA PHARMA CO., LTD., priority 2016, dated 2020):

Test system: mouse colitis model induced by transfer of IL-10−/− cells
Experiment: Mouse colitis model induced by transfer of IL-10−/− cells, intestinal tract weight
Format: in vivo
Settings: oral, three times per day for 14 days
Procedure: As a method for preparing mouse colitis model induced by transfer of IL-10^−/− cells, used was the method described in J Crohns Colitis. 2013 December; 7 (11): e533-42.
Each test substance was suspended in a 0.5% methylcellulose aqueous solution to be contained at 30, 10, 3, or 1 mg/mL, and was orally administered with Terumo syringe (1 mL) and a metal probe for mouse in a dose of 10 ml per kilo gram of animal body weight. The administration was performed three times per day for 14 days.
An intestinal tract weight as a medicinal effect indicator was measured by the following method. On the final necropsy day, the large intestine from the anus to just before the cecum was taken out, the content in the intestinal tract was washed away with physiological saline, the moisture was lightly removed, and the weight of the large intestine was measured. The inhibitory rate (%) in each of compound administered groups was figured out based on the average value of intestinal tract weights per group under the setting in which a colitis onset group was scored at 0% and a normal group was scored at 100%.

SMILES	Inhibitory Rate (%) (intestinal tract weight) (Dose 10 mg/kg)	Inhibitory Rate (%) (intestinal tract weight) (Dose 100 mg/kg)	Inhibitory Rate (%) (intestinal tract weight) (Dose 30 mg/kg)	Inhibitory Rate (%) (intestinal tract weight) (Dose 300 mg/kg)
Cc1c(C)n(C)c(=O)n(-c2ccc(C[C@H](NC(=O)c3cc(F)c(NS(=O)(=O)c4ccc(NC(=O)C(C)(C)C)cc4)cc3F)C(=O)OC(C)C)cc2)c1=O [Compound P2]	24.6%	52.2%	–	–
CCOC(=O)[C@H](Cc1ccc(-n2c(=O)cc(C)n(C)c2=O)nc1)NC(=O)c1cc(F)c(NS(=O)(=O)c2ccc(NC(=O)C(C)(C)C)cc2)cc1F [Compound P52]	–	–	39.9%	42.8%
CC(C)OC(=O)[C@H](Cc1ccc(-n2c(=O)ccn(C)c2=O)nc1)NC(=O)c1cc(F)c(NS(=O)(=O)c2ccc(NC(=O)C(C)(C)C)cc2)cc1F [Compound P59]	–	–	46.7%	58.6%
CCOC(=O)[C@H](Cc1ccc(-n2c(=O)c(C)cn(C)c2=O)nc1)NC(=O)c1cc(F)c(NS(=O)(=O)c2ccc(NC(=O)C(C)(C)C)cc2)cc1F [Compound P69]	–	–	36.1%	51.1%
Cc1cn(C)c(=O)n(-c2ccc(C[C@H](NC(=O)c3cc(F)c(NS(=O)(=O)c4ccc(NC(=O)C(C)(C)C)cc4)cc3F)C(=O)OCC(C)C)cn2)c1=O [Compound P73]	–	–	21.9%	38.8%
CC(C)COC(=O)[C@H](Cc1ccc(-n2c(=O)ccn(C)c2=O)nc1)NC(=O)c1cc(F)c(NS(=O)(=O)c2ccc(NC(=O)C(C)(C)C)cc2)cc1F [Compound P74]	–	–	12.5%	47.1%
Cc1cc(=O)n(-c2ccc(C[C@H](NC(=O)c3cc(F)c(NS(=O)(=O)c4ccc(NC(=O)C(C)(C)C)cc4)cc3F)C(=O)OCC(C)C)cn2)c(=O)n1C [Compound P97]	–	–	17.5%	43.6%
